# Measured values as given in US10894784B2, “Heteroarylbenzimidazole compounds” (BAYER PHARMA AKTIENGESELLSCHAFT, priority 2015, dated 2021).
# Molecular target: TBK1 (Homo sapiens (Human), UniProt Q9UHD2)
# Experiment: TBK1 low ATP kinase assay (in vitro assay 1)
# Format: biochemical
# Conditions: TBK1 low ATP kinase assay IC50, in vitro assay 1
# Chain of TBK1 (Q9UHD2 whole entry): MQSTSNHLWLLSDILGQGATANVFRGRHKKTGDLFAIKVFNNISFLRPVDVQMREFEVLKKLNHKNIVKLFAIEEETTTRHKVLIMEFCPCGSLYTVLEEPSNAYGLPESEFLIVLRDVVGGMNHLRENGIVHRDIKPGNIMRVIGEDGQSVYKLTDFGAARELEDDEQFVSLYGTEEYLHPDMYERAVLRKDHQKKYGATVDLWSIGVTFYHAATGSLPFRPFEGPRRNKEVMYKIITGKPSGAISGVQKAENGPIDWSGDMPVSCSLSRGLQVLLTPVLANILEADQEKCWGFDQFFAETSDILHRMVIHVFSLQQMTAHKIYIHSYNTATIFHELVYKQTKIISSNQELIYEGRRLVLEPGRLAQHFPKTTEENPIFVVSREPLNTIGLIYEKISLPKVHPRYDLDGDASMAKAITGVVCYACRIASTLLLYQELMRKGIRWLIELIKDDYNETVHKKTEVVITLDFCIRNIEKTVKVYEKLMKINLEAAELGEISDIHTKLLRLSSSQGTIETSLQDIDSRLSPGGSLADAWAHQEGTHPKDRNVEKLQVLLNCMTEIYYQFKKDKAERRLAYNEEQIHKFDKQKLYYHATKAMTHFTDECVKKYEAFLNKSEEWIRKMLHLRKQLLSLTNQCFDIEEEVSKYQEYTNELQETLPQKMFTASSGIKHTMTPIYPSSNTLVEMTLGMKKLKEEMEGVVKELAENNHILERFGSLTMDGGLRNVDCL
row,SMILES,IC50
1,"CC(C)Oc1cncnc1-c1ccc2nc(Nc3cc(C(C)N4CCN(C(=O)CC(F)(F)F)CC4)ccn3)[nH]c2c1 (single isomer, unassigned) [Example 36.02, 3,3,3-trifluoro-1-(4-{(1R or 1S)-1-[2-({6-[5-(propan-2-yloxy)pyrimidin-4-yl]-1H-benzimidazol-2-yl}amino)pyridin-4-yl]ethyl}piperazin-1-yl)propan-1-one]",1.96 nM

# Same assay, conditions: in vitro assay 1, read-out: TBK1 low ATP kinase assay IC50
row,SMILES,IC50
1,"COc1nccc(-c2ccc3nc(Nc4cc(CN5CCN(C(=O)OC(C)(C)C)CC5)ccn4)[nH]c3c2)n1 [Example 25.01.01, tert-butyl 4-[(2-{[6-(2-methoxypyrimidin-4-yl)-1H-benzimidazol-2-yl]amino}pyridin-4-yl)methyl]piperazine-1-carboxylate]",174 nM
2,"Cc1cc(-c2ccc3nc(Nc4cc(C(C)N5CCN(C(=O)C6(C(F)(F)F)CC6)CC5)ccn4)[nH]c3c2F)ncn1 (single isomer, unassigned) [Example 172.04, {4-[(1R or 1S)-1-(2-{[7-fluoro-6-(6-methylpyrimidin-4-yl)-1H-benzimidazol-2-yl]amino}pyridin-4-yl)ethyl]piperazin-1-yl}[1-(trifluoromethyl)cyclopropyl]methanone]",20.9 nM
3,"COc1cncnc1-c1ccc2nc(Nc3cc(C(C)N4CCN(C(=O)C5CCC5)CC4)ccn3)[nH]c2c1 (racemic) [Example 35.02.04, (rac)-cyclobutyl{4-[1-(2-{[6-(5-methoxypyrimidin-4-yl)-1H-benzimidazol-2-yl]amino}pyridin-4-yl)ethyl]piperazin-1-yl}methanone]",10.4 nM
4,"CC(c1ccnc(Nc2nc3ccc(-c4ccncn4)cc3[nH]2)c1)N1CCN(C(=O)CC(F)(F)F)CC1 (single isomer, unassigned) [Example 23.05.02.B, 3,3,3-trifluoro-1-{4-[(1S or 1R)-1-(2-{[6-(pyrimidin-4-yl)-1H-benzimidazol-2-yl]amino}pyridin-4-yl)ethyl]piperazin-1-yl}propan-1-one]",1.86 nM
5,"COc1cc(-c2ccc3nc(Nc4cc(CN5CCN(C(=O)OC(C)(C)C)CC5)ccn4)[nH]c3c2)ccn1 [Example 02.01, tert-butyl 4-[(2-{[6-(2-methoxypyridin-4-yl)-1H-benzimidazol-2-yl]amino}pyridin-4-yl)methyl]piperazine-1-carboxylate]",131 nM
6,"CC(c1ccnc(Nc2nc3ccc(-c4ccnn4C(C)C)cc3[nH]2)c1)N1CCN(C(=O)C2CC2)CC1 (single isomer, unassigned) [Example 72.03, cyclopropyl(4-{(1R or 1S)-1-[2-({6-[1-(propan-2-yl)-1H-pyrazol-5-yl]-1H-benzimidazol-2-yl}amino)pyridin-4-yl]ethyl}piperazin-1-yl)methanone]",100 nM
7,"CC(=O)c1cc(-c2ccc3nc(Nc4cc(CN5CCN(C(=O)CC(F)(F)F)CC5)ccn4)[nH]c3c2)ncn1 [Example 97.03, 1-{4-[(2-{[6-(6-acetylpyrimidin-4-yl)-1H-benzimidazol-2-yl]amino}pyridin-4-yl)methyl]piperazin-1-yl}-3,3,3-trifluoropropan-1-one]",29 nM
8,"CC(c1ccnc(Nc2nc3ccc(-c4cnn(CC5CC(F)(F)C5)c4)cc3[nH]2)c1)N1CCN(C(=O)CC(F)(F)F)CC1 (single isomer, unassigned) [Example 169.02, 1-{4-[(1R or 1S)-1-{2-[(6-{1-[(3,3-difluorocyclobutyl)methyl]-1H-pyrazol-4-yl}-1H-benzimidazol-2-yl)amino]pyridin-4-yl}ethyl]piperazin-1-yl}-3,3,3-trifluoropropan-1-one]",11.6 nM
9,"Cc1nccc(-c2ccc3nc(Nc4cc(C(C)N5CCN(C(=O)CC(F)(F)F)CC5)ccn4)[nH]c3c2)n1 (single isomer, unassigned) [Example 24.05.01.A, 3,3,3-trifluoro-1-{4-[(1R or 1S)-1-(2-{[6-(2-methylpyrimidin-4-yl)-1H-benzimidazol-2-yl]amino}pyridin-4-yl)ethyl]piperazin-1-yl}propan-1-one]",45.4 nM
10,"Cc1c(-c2ccc3nc(Nc4cc(CN5CCN(C(=O)CC(F)(F)F)CC5)ccn4)[nH]c3c2)ncnc1C(F)(F)F [Example 183.02, 3,3,3-trifluoro-1-(4-{[2-({6-[5-methyl-6-(trifluoromethyl)pyrimidin-4-yl]-1H-benzimidazol-2-yl}amino)pyridin-4-yl]methyl}piperazin-1-yl)propan-1-one]",2100 nM
11,"O=C(CC1CC1)N1CCN(Cc2ccnc(Nc3nc4ccc(-c5ccncn5)cc4[nH]3)c2)CC1 [Example 23.01.01, 2-cyclopropyl-1-{4-[(2-{[6-(pyrimidin-4-yl)-1H-benzimidazol-2-yl]amino}pyridin-4-yl)methyl]piperazin-1-yl}ethanone]",33.4 nM
12,"CC(c1ccnc(Nc2nc3ccc(-c4cc(N5CCOCC5)ncn4)cc3[nH]2)c1)N1CCN(C(=O)C2CC2)CC1 (single isomer, unassigned) [Example 118.02, cyclopropyl(4-{(1R or 1S)-1-[2-({6-[6-(morpholin-4-yl)pyrimidin-4-yl]-1H-benzimidazol-2-yl}amino)pyridin-4-yl]ethyl}piperazin-1-yl)methanone]",3.3 nM
13,"CC(c1ccnc(Nc2nc3ccc(-c4cc(OCC(F)(F)F)ncn4)cc3[nH]2)c1)N1CCN(C(=O)C2(C(F)(F)F)CC2)CC1 (single isomer, unassigned) [Example 119.04, (4-{(1R or 1S)-1-[2-({6-[6-(2,2,2-trifluoroethoxy)pyrimidin-4-yl]-1H-benzimidazol-2-yl}amino)pyridin-4-yl]ethyl}piperazin-1-yl)[1-(trifluoromethyl)cyclopropyl]methanone]",10.9 nM
14,"O=C(CC(F)(F)F)N1CCN(Cc2ccnc(Nc3nc4ccc(-c5ncnc(NCC6CC6)c5F)cc4[nH]3)c2)CC1 [Example 195.02, 1-[4-({2-[(6-{6-[(cyclopropylmethyl)amino]-5-fluoropyrimidin-4-yl}1H-benzimidazol-2-yl)amino]pyridin-4-yl}methyl)piperazin-1-yl]-3,3,3-trifluoropropan-1-one]",33.7 nM
15,"CN(C)c1ccnc(-c2ccc3nc(Nc4cc(CN5CCN(C(=O)CC(F)(F)F)CC5)ccn4)[nH]c3c2)n1 [Example 181.02, 1-(4-{[2-({6-[4-(dimethylamino)pyrimidin-2-yl]-1H-benzimidazol-2-yl}amino)pyridin-4-yl]methyl}piperazin-1-yl)-3,3,3-trifluoropropan-1-one]",152 nM
16,"Cc1cc(-c2ccc3nc(Nc4cc(CN5CCN(C(=O)C6CCC6)CC5)ccn4)[nH]c3c2)ccn1 [Example 01.05, cyclobutyl{4-[(2-{[6-(2-methylpyridin-4-yl)-1H-benzimidazol-2-yl]amino}pyridin-4-yl)methyl]piperazin-1-yl}methanone]",70.9 nM
17,"CNc1cc(-c2ccc3nc(Nc4cc(CN5CCN(C(=O)C6CC6)CC5)ccn4)[nH]c3c2)ncn1 [Example 150.03, cyclopropyl(4-{[2-({6-[6-(methylamino)pyrimidin-4-yl]-1H-benzimidazol-2-yl}amino)pyridin-4-yl]methyl}piperazin-1-yl)methanone]",5.4 nM
18,"CC(c1ccnc(Nc2nc3ccc(-c4ccncn4)cc3[nH]2)c1)N1CCN(C(=O)C2CC2)CC1 (racemic) [Example 23.04.02, (rac)-cyclopropyl{4-[1-(2-{[6-(pyrimidin-4-yl)-1H-benzimidazol-2-yl]amino}pyridin-4-yl)ethyl]piperazin-1-yl}methanone]",2.42 nM
19,"CC(c1ccnc(Nc2nc3ccc(-c4cnn(CC5CC5(C)C)c4)cc3[nH]2)c1)N1CCN(C(=O)OC(C)(C)C)CC1 (single isomer, unassigned) [Example 67.01, tert-butyl 4-[(1R or 1S)-1-(2-{[6-(1-{[(1RS)-2,2-dimethylcyclopropyl]methyl}-1H-pyrazol-4-yl)-1H-benzimidazol-2-yl]amino}pyridin-4-yl)ethyl]piperazine-1-carboxylate]",46 nM
20,"CCNc1cc(-c2ccc3nc(Nc4cc(CN5CCN(C(=O)CC(F)(F)F)CC5)ccn4)[nH]c3c2)ncn1 [Example 149.02, 1-(4-{[2-({6-[6-(ethylamino)pyrimidin-4-yl]-1H-benzimidazol-2-yl}amino)pyridin-4-yl]methyl}piperazin-1-yl)-3,3,3-trifluoropropan-1-one]",2 nM
21,"CC(c1ccnc(Nc2nc3ccc(-c4cnn(CC5CCCC5)c4)cc3[nH]2)c1)N1CCN(C(=O)OC(C)(C)C)CC1 (single isomer, unassigned) [Example 71.01, tert-butyl 4-{(1R or 1S)-1-[2-({6-[1-(cyclopentylmethyl)-1H-pyrazol-4-yl]-1H-benzimidazol-2-yl}amino)pyridin-4-yl]ethyl}piperazine-1-carboxylate]",100 nM
22,"Cc1nccc(-c2ccc3nc(Nc4cc(C(C)N5CCN(C(=O)CC6CC6)CC5)ccn4)[nH]c3c2)n1 (racemic) [Example 24.04.04, (rac)-2-cyclopropyl-1-{4-[1-(2-{[6-(2-methylpyrimidin-4-yl)-1H-benzimidazol-2-yl]amino}pyridin-4-yl)ethyl]piperazin-1-yl}ethanone]",14.4 nM
23,"CNc1cc(-c2ccc3nc(Nc4cc(CN5CCN(C(=O)OC(C)(C)C)CC5)ccn4)[nH]c3c2)ncn1 [Example 150.01, tert-butyl 4-{[2-({6-[6-(methylamino)pyrimidin-4-yl]-1H-benzimidazol-2-yl}amino)pyridin-4-yl]methyl}piperazine-1-carboxylate]",15 nM
24,"CC(c1ccnc(Nc2nc3ccc(-c4cc(OCC(F)(F)C(F)(F)F)ncn4)cc3[nH]2)c1)N1CCN(C(=O)C2CC2)CC1 (single isomer, unassigned) [Example 166.03, cyclopropyl(4-{(1R or 1S)-1-[2-({6-[6-(2,2,3,3,3-pentafluoropropoxy)pyrimidin-4-yl]-1H-benzimidazol-2-yl}amino)pyridin-4-yl]ethyl}piperazin-1-yl)methanone]",21.1 nM
25,"O=C(CC(F)(F)F)N1CCN(Cc2ccnc(Nc3nc4ccc(-c5ccnc(C(F)F)c5)cc4[nH]3)c2)CC1 [Example 139.02, 1-(4-{[2-({6-[2-(difluoromethyl)pyridin-4-yl]-1H-benzimidazol-2-yl}amino)pyridin-4-yl]methyl}piperazin-1-yl)-3,3,3-trifluoropropan-1-one]",15 nM
